In patent US20110071197A1, “BIS-ARYL COMPOUNDS FOR USE AS MEDICAMENTS” (priority 2008, published 2011):

Key:
[1] = biological target: T1, Recombinant human LTC4 synthase (Homo sapiens, UniProt Q16873); test: LTC4 synthase in vitro assay (HPLC method); assay type: biochemical; conditions: inhibition of LTC4 synthase
T1 construct: made in house; host or cells: Pichia pastoris
T1 sequence (Q16873 1-150): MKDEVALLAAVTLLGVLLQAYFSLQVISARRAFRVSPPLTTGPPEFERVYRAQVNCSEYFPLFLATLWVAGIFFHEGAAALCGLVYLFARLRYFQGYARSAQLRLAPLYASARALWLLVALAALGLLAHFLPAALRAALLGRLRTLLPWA
Experimental: In the assay, LTC4 synthase catalyses the reaction where the substrate LTA4 methyl ester is converted to the corresponding LTC4 methyl ester. Recombinant human LTC4 synthase is expressed in Piccia pastoralis and the purified enzyme is dissolved in 25 mM Tris-buffer pH 7.8 and stored at −80° C. The assay is performed in phosphate buffered saline (PBS) pH 7.4, supplemented with 5 mM glutathione (GSH). The reaction is terminated by addition of acetonitrile/MeOH/acetic acid (50/50/1). The assay is performed at rt in 96-well plates. Analysis of the formed LTC4 methyl ester is performed with reversed phase HPLC (Waters 2795 utilizing an Onyx Monolithic C18 column). The mobile phase consists of acetonitrile/MeOH/H2O (32.5/30/37.5) with 1% acetic acid pH adjusted with NH3 to pH 5.6, and absorbance measured at 280 nm with a Waters 2487 UV-detector.
The following is added chronologically to each well: • 1. 50 μl assay buffer, PBS with 5 mM GSH. • 2. 0.5 μl inhibitor in DMSO (final conc. 1 nM-10 μM). • 3. 2 μl LTC4 synthase in PBS. The total protein concentration in this solution is 0.025 mg/ml. Incubation of the plate at room temperature for 10 minutes. • 4. 1-1.5 μl LTA4 methyl ester (final conc. 10 μM). Incubation of the plate at rt for 1 min. • 5. 50 μl stop solution.
80 μl of the incubation mixture is analysed with HPLC.

[2] = biological target: T1, Recombinant human LTC4 synthase; test: LTC4 synthase in vitro assay (HTRF detection of LTC4); assay type: biochemical; conditions: HTRF method; for inhibition at 10 µM: total concentration of title compound in the assay 10 μM
In short: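 Pichia-expressed recombinant human LTC4 synthase at 0.5 μg/ml total protein in PBS pH 7.4 with 5 mM GSH, preincubated 10 min at RT with inhibitor (10 μM final). LTA4 (2.5 μM final) was then added for 5 min at RT. LTC4 formed was read by HTRF.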

| IC50 [1] | inhibition at 10 µM [2] | inhibition at 3 µM ([2]; compound concentration 3 μM) | SMILES |
| --- | --- | --- | --- |
| 845 nM | 97% |  | O=C(O)c1cc(Oc2ccc(Nc3ccc(F)cc3)c(C(=O)O)c2)ccc1Nc1ccc(F)cc1 [1:2, 3,3′-oxybis[6-(4-fluorophenyl-amino)benzoic acid]] |
| 449 nM |  | 80% | O=C(Nc1ccc(Sc2ccc(NC(=O)Nc3ccc(C(F)(F)F)cc3)c(C(=O)O)c2)cc1)Nc1ccc(C(F)(F)F)cc1 [14:6, 2-[3-(4-trifluoromethyl-phenyl)ureido]-5-{4-[3-(4-trifluoromethylphenyl)-ureido]phenylsulfanyl}-benzoic acid] |
| 629 nM | 98% |  | CCCCOc1ccc(S(=O)(=O)Nc2ccc(Oc3cccc(Oc4ccc(F)c(F)c4)c3)cc2C(=O)O)cc1 [28:1] |
| 802 nM | 97% |  | CC(C)(C)c1ccc(C(=O)Nc2cccc(Oc3ccc(NS(=O)(=O)c4ccc(C(C)(C)C)cc4)c(C(=O)O)c3)c2)cc1 [29:1] |
| 5110 nM | 72% |  | CC(C)Oc1ccc(C(=O)Nc2ccc(Oc3ccc(NC(=O)c4ccccc4)cc3)cc2/C=C/C(=O)O)cc1 [Example 22:3, (E)-3-[5-(4-Benzoylaminophenoxy)-2-(4-isopropoxy-benzoylamino)-phenyl]acrylic acid] |
|  | 100% |  | O=C(Nc1ccc(Sc2ccc(NS(=O)(=O)c3ccc(Cl)cc3F)c(C(=O)O)c2)cc1)c1ccc(C(F)(F)F)cc1 [Example 35:2, 2-(4-Chloro-2-fluoro-benzenesulfonylamino)-5-[4-(4-trifluoromethylbenzoylamino)-phenylsulfanyl]benzoic acid] |

| SMILES | IC50 [1] | inhibition at 10 µM [2] | inhibition at 3 µM ([2]; compound concentration 3 μM) |
| --- | --- | --- | --- |
| CCCCOc1ccc(S(=O)(=O)Nc2ccc(Oc3cccc(S(=O)(=O)Nc4ccc(Cl)cc4)c3)cc2C(=O)O)cc1 [19:1, 2-(4-Butoxy-benzenesulfonylamino)-5-[3-(4-chloro-phenylsufamoyl)-phenoxy]-benzoic acid] | 1160 nM | 100% |  |
